Measured values reported in patent publication US8653091B2, “Pyrid-2yl fused heterocyclic compounds, and compositions and uses thereof” (Evotec AG, priority 2007, dated 2014).
pIC50: −log10 of the molar value.

Tests used:
P2X3 = P2X3 (Homo sapiens (Human), UniProt P56373); experiment: Calcium uptake assay (P2X antagonist assay), P2X3; format: cell-based; details: inhibition of agonist-induced calcium influx
Text: (§1) Human P2X3 (Accession no. NM_002559), P2X2 (Accession no. NM_170682) and Rat P2X3 (Accession no. NM_031075) and P2X2 (Accession no. NM_053656) are cloned into a mammalian expression vector (e.g., pcDNA5/TO or pcDNA3 Invitrogen). The human P2X2/3 chimera clone is created as described by Neelands et al, and then cloned into an expression vector as above. Receptors are expressed in cells (e.g., HEK293 or 1321N1 (obtained from the ECACC)) via transient transfection using standard lipid mediated transfection, or by creation of stable transfectants for each receptor. For expression of the P2X2/3 heteromeric receptor, the P2X3 expression vector is stably transfected into a cell line already stably expressing P2X2. P2X2/3 heteromer function is isolated using pharmacological methods. Cell lines are maintained in DMEM+5% Glutamax, the appropriate level of selective antibiotic, and 10% heat inactivated FBS.
(§2) Functional activity of compounds at the P2X receptor is determined by measuring their ability to inhibit agonist-induced calcium influx. Compounds are tested for antagonist activity against the P2X2/3 chimera, the P2X3 homomer, or the P2X2/3 heteromer. At the start of each screening day, the agonist EC50 is determined. Compound % inhibition or IC50s are subsequently determined using a pre-determined agonist concentration (EC50-90 depending on cell line) as a stimulus. The agonists used are αβMeATP, ATP, or other ATP analogs. Compounds may be tested at concentrations ranging from 1 μM to 10 μM.
(§3) To test for antagonist activity, cells expressing the appropriate receptor are seeded onto 96 or 384 well plates 18-24 hours prior to assay. On the day of the assay, cells are loaded with calcium-sensitive fluorescent dye (e.g., Fluo-4 no wash reagent-Invitrogen cat#F36206, or the BD™ PBX Calcium Assay Kit—BD cat#640175) in Hank's Buffered Salt Solution (HESS) with up to 10 mM supplemental CaCl2. Plates are incubated at 37° C. and then equilibrated at room temperature. Antagonism of agonist-induced calcium influx is measured using a fluorescent imaging plate reader (e.g. FLIPR^TETRA, Molecular Devices, Sunnyvale, Calif.). The assay comprises two stages: a pre-treatment phase followed by a treatment phase. Compounds may be tested as follows: For the pre-treatment phase, 50 μL of 3× concentration of test compound in HBSS is added to cells containing 100 μL of dye loading media to achieve a final concentration of 1× test compound. For the treatment phase, at a set interval after pre-treatment (1-30 minutes), 50 μL of 1× test compound plus […] solution is added, resulting in a final concentration of 1× compound and 1× agonist. Fluorescence is measured at 0.1-3 second intervals—with an excitation wavelength of 494 nm and an emission wavelength of 515 nm. Responses are measured as (peak fluorescence after agonist addition) minus (baseline fluorescence prior to treatment). Percent inhibition is calculated as follows: […]
(§4) IC50 values are determined by analyzing dose response data in a 4 parameter logistic fit using GraphPad Prizm.

P2X2/3 = P2X2/3 (Homo sapiens (Human), UniProt P56373+Q9UBL9); experiment: Calcium uptake assay (P2X antagonist assay), P2X2/3; format: cell-based; details: inhibition of agonist-induced calcium influx
P2X2/3, sequence (Q9UBL9 whole entry): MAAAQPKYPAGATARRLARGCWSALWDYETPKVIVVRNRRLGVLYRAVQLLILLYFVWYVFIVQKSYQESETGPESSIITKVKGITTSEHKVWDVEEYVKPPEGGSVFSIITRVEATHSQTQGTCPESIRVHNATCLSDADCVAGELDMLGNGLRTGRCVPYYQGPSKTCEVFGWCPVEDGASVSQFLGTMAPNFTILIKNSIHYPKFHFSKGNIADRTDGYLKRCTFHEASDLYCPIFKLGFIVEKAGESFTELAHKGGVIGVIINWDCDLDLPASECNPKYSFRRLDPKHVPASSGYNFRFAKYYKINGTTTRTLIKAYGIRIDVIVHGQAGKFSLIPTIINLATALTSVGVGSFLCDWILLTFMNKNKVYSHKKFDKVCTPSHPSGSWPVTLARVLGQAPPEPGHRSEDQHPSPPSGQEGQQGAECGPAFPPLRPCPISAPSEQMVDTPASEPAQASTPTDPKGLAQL
P2X2/3, sequence (P56373 whole entry): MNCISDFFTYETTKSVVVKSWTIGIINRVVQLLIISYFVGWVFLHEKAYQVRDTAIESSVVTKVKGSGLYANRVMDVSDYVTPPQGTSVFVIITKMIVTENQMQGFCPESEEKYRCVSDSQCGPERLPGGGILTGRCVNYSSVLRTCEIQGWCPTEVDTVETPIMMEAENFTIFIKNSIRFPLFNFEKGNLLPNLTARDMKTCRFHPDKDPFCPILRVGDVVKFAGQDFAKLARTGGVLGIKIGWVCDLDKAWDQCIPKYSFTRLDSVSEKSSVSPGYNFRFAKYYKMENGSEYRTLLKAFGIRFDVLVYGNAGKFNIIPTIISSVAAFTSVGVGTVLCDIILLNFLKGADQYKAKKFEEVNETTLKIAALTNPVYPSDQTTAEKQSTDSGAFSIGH
Text: as §1, §2, §3, §4

P2X3, sequence (P56373 whole entry): as above

| SMILES | pIC50 (P2X3) | pIC50 (P2X2/3) |
| --- | --- | --- |
| COc1ccc([C@@H](CCO)Nc2ncnc3c2CN(c2ccc(C)cn2)CC3)cn1 [Compound 58, (R)-3-(6-Methoxy-pyridin-3-yl)-3-[6-(5-methyl-pyridin-2-yl)-5,6,7,8-tetrahydro-pyrido[4,3-d]pyrimidin-4-ylamino]-propan-1-ol] | 7.54 | 7.08 |
| Cc1ccc(N2CCc3ncnc(NC(C)c4ccccn4)c3C2)nc1 (centres unmarked) [Compound 10, [6-(5-Methyl-pyridin-2-yl)-5,6,7,8-tetrahydro-pyrido[4,3-d]pyrimidin-4-yl]-(1-pyridin-2-yl-ethyl)-amine] | 6.91 | 5.40 |
| Cc1ccc(N2CCc3ncnc(N[C@H](C)c4ccc(Cl)cc4)c3C2)nc1 [Compound 7, [(R)-1-(4-Chloro-phenyl)-ethyl]-[6-(5-methyl-pyridin-2-yl)-5,6,7,8-tetrahydro-pyrido[4,3-d]pyrimidin-4-yl]-amine] | 7.32 | 5.72 |
| Cc1ccc(N2CCc3ncnc(NC(C)c4cccnc4)c3C2)nc1 (centres unmarked) [Compound 11, [6-(5-Methyl-pyridin-2-yl)-5,6,7,8-tetrahydro-pyrido[4,3-d]pyrimidin-4-yl]-(1-pyridin-3-yl-ethyl)-amine] | 7.20 | 5.56 |
| Cc1ccc(N2CCc3ncnc(N[C@H](C)c4ccc(C(F)(F)F)nc4)c3C2)nc1 [Compound 50, (R)-6-(5-Methylpyridin-2-yl)-N-(1-(6-(trifluoromethyl)pyridin-3-yl)ethyl)-5,6,7,8-tetrahydropyrido[4,3-d]pyrimidin-4-amine] | 7.82 | 6.55 |
| Cc1ccc(N2CCc3ncnc(N[C@H](C)c4ccccc4)c3C2)nc1 [Compound 8, [6-(5-Methyl-pyridin-2-yl)-5,6,7,8-tetrahydro-pyrido[4,3-d]pyrimidin-4-yl]-((R)-1-phenyl-ethyl)-amine] | 7.14 | 5.60 |
| Cc1ccc(N2CCc3ncnc(N[C@H](C)c4cnc(C)nc4)c3C2)nc1 [Compound 64, [6-(5-Methyl-pyridin-2-yl)-5,6,7,8-tetrahydro-pyrido[4,3-d]pyrimidin-4-yl]-[(R)-1-(2-methyl-pyrimidin-5-yl)-ethyl]-amine] | 7.77 | 6.59 |
| COc1ccc([C@@H](CO)Nc2ncnc3c2CN(c2ccc(C)cn2)CC3)cn1 [Compound 60, (S)-2-(6-Methoxy-pyridin-3-yl)-2-[6-(5-methyl-pyridin-2-yl)-5,6,7,8-tetrahydro-pyrido[4,3-d]pyrimidin-4-ylamino]-ethanol] | 7.57 | 7.01 |
| Cc1ccc(N2CCc3ncnc(N[C@H](CCO)c4ccc(C)nc4)c3C2)nc1 [Compound 61, (R)-3-(6-Methyl-pyridin-3-yl)-3-[6-(5-methyl-pyridin-2-yl)-5,6,7,8-tetrahydro-pyrido[4,3-d]pyrimidin-4-ylamino]-propan-1-ol] | 7.55 | 6.88 |
| Cc1ccc(N2CCc3ncnc(NC(C)c4ccccc4F)c3C2)nc1 (centres unmarked) [Compound 12, [1-(2-Fluoro-phenyl)-ethyl]-[6-(5-methyl-pyridin-2-yl)-5,6,7,8-tetrahydro-pyrido[4,3-d]pyrimidin-4-yl]-amine] | 7.06 | 5.34 |
| Cc1ccc(N2CCc3ncnc(N[C@H](CO)c4ccc(C(F)(F)F)cc4)c3C2)nc1 [Compound 55, (S)-2-(6-(5-Methylpyridin-2-yl)-5,6,7,8-tetrahydropyrido[4,3-d]pyrimidin-4-ylamino)-2-(4-(trifluoromethyl)phenyl)ethanol] | 6.80 | 5.40 |
| Cc1ccc(N2CCc3ncnc(NC(C)c4cccc(F)c4)c3C2)nc1 (centres unmarked) [Compound 2, [1-(3-Fluoro-phenyl)-ethyl]-[6-(5-methyl-pyridin-2-yl)-5,6,7,8-tetrahydro-pyrido[4,3-d]pyrimidin-4-yl]-amine] | 7.25 | 5.61 |

Next, values leading:

| pIC50 (P2X3) | pIC50 (P2X2/3) | SMILES |
| --- | --- | --- |
| 7.05 | 6.56 | COc1ccc([C@@H](CO)Nc2ncnc3c2CN(c2ccc(Cl)cn2)CC3)cn1 [Compound 59, (S)-2-[6-(5-Chloro-pyridin-2-yl)-5,6,7,8-tetrahydro-pyrido[4,3-d]pyrimidin-4-ylamino]-2-(6-methoxy-pyridin-3-yl)-ethanol] |
| 7.62 | 6.47 | Cc1ccc(N2CCc3ncnc(N[C@H](CCO)c4ccc(C(F)(F)F)nc4)c3C2)nc1 [Compound 63, (R)-3-[6-(5-Methyl-pyridin-2-yl)-5,6,7,8-tetrahydro-pyrido[4,3-d]pyrimidin-4-ylamino]-3-(6-trifluoromethyl-pyridin-3-yl)-propan-1-ol] |
| 7.17 | 6.28 | Cc1ccc(N2CCc3ncnc(NC(CCO)c4ccc(C(F)(F)F)nc4)c3C2)nc1 (centres unmarked) [Compound 56, 3-[6-(5-Methyl-pyridin-2-yl)-5,6,7,8-tetrahydro-pyrido[4,3-d]pyrimidin-4-ylamino]-3-(6-trifluoromethyl-pyridin-3-yl)-propan-1-ol] |
| 7.33 | 5.83 | Cc1ccc([C@@H](C)Nc2ncnc3c2CN(c2ccc(C)cn2)CC3)cc1 [Compound 34] |
| 6.84 | 5.41 | Cc1ccc(N2CCc3ncnc(NC(CCO)c4ccccc4)c3C2)nc1 (centres unmarked) [Compound 32, 3-[6-(5-Methyl-pyridin-2-yl)-5,6,7,8-tetrahydro-pyrido[4,3-d]pyrimidin-4-ylamino]-3-phenyl-propan-1-ol] |
| 7.37 | 5.85 | Cc1ccc(N2CCc3ncnc(NC(C)c4ccc(Cl)c(F)c4)c3C2)nc1 (centres unmarked) [Compound 39, [1-(4-Chloro-3-fluoro-phenyl)-ethyl]-[6-(5-methyl-pyridin-2-yl)-5,6,7,8-tetrahydro-pyrido[4,3-d]pyrimidin-4-yl]-amine] |
| 7.30 | 5.51 | Cc1ccc(N2CCc3ncnc(NC(C)c4ccc(F)cc4F)c3C2)nc1 (centres unmarked) [Compound 18, [1-(2,4-Difluoro-phenyl)-ethyl]-[6-(5-methyl-pyridin-2-yl)-5,6,7,8-tetrahydro-pyrido[4,3-d]pyrimidin-4-yl]-amine] |
